Data published in publication PMC8606745 (Frontiers in Microbiology, 2021).
Where “and” joins values, the source holds several entries; their conditions need not be identical. Equal entries are not always repeated. Where two headings read alike, the source gives them in different places. Square brackets hold non-standard residues; d marks the D form. Peptide text beside a SMILES is read from it. * marks the point of attachment. Hexanoyl = CCCCCC(=O)*

Legend:
[1] = system: X. fastidiosa subsp. fastidiosa IVIA 5387.2; type: cell-based, Xylella fastidiosa
[2] = system: X. fastidiosa subsp. fastidiosa IVIA 5387.2
[3] = system: X. fastidiosa subsp. fastidiosa IVIA 5387.2; settings: for Bimax (maximum biofilm inhibition): 50 µM
[4] = system: horse erythrocytes
[5] = system: X. fastidiosa subsp. fastidiosa IVIA 5387.2; type: cell-based, Xylella fastidiosa; remark: listed apart in the source
[6] = system: X. fastidiosa subsp. fastidiosa IVIA 5770; type: cell-based, Xylella fastidiosa; settings: 50 μM; strain IVIA 5770; OD595 crystal violet, 28°C, 5 days; three replicates of 10 wells ± confidence interval; listed as NAC
[7] = system: X. fastidiosa subsp. multiplex CFBP 8173; type: cell-based, Xylella fastidiosa; settings: 50 μM; strain CFBP 8173; OD595 crystal violet, 28°C, 5 days; three replicates of 10 wells ± confidence interval; listed as NAC
[8] = system: X. fastidiosa subsp. pauca DD1; type: cell-based, Xylella fastidiosa; settings: 50 μM; strain DD1; OD595 crystal violet, 28°C, 5 days; three replicates of 10 wells ± confidence interval; listed as NAC
[9] = system: X. fastidiosa subsp. fastidiosa Temecula (ATCC 700964); type: cell-based, Xylella fastidiosa; settings: 50 μM; strain Temecula; OD595 crystal violet, 28°C, 5 days; three replicates of 10 wells ± confidence interval; listed as NAC
[10] = system: X. fastidiosa subsp. multiplex IVIA 5901.2; type: cell-based, Xylella fastidiosa; settings: 50 μM; strain IVIA 5901.2; OD595 crystal violet, 28°C, 5 days; three replicates of 10 wells ± confidence interval; listed as NAC
[11] = system: Gram-negative bacteria; settings: cited from earlier work
[12] = system: Gram-negative bacteria; settings: cited from earlier work; remark: listed apart in the source
[13] = system: several X. fastidiosa strains; settings: 12.5 μM; cited from earlier work

With `CC[C@H](C)[C@H](N)C(=O)N[C@@H](CC(C)C)C(=O)N1CCC[C@H]1C(=O)N[C@H](Cc1ccccc1)C(=O)N[C@@H](CCCCN)C(=O)N[C@H](Cc1ccccc1)C(=O)N1CCC[C@H]1C(=O)N[C@H](Cc1ccccc1)C(=O)N[C@H](Cc1ccccc1)C(=O)N1CCC[C@H]1C(=O)N[C@H](Cc1ccccc1)C(=O)N[C@@H](CCCNC(=N)N)C(=O)N[C@@H](CCCNC(=N)N)C(N)=O` [BP525] (H-ILP[dF]K[dF]P[dF][dF]P[dF]RR-NH2) the “Biofilm formation Level (antibiofilm activity)” value (“Biofilm formation Level” below) [1] was “High (key: High: high antibiofilm activity (ratio of biofilm formation from 0.01 to 0.2); Moderate: moderate activity (ratio from 0.29 to 0.47); Low: low activity (ratio from 0.72 to 0.77))”, the “Biofilm formation Ratio (treatment/NTC)” value [1] was 0.18 ± 0.01 and the “Planktonic cells Ratio (treatment/NTC)” value [1] was 1.83 ± 0.12. For the same compound, the “Bactericidal activity: Reduction in viability (Log N0/N)” value [2] was 0.74 ± 0.06 Log N0/N, the “ED50 (median effective dose, biofilm inhibition)” value [3] was 4.4 ± 1.3 µM and the “Bimax (maximum biofilm inhibition)” value [3] was 85.8%.

For `CCCCCC(=O)N[C@H](C(=O)N[C@@H](CC(C)C)C(=O)N1CCC[C@H]1C(=O)N[C@H](Cc1ccccc1)C(=O)N[C@@H](CCCCN)C(=O)N[C@H](Cc1ccccc1)C(=O)N1CCC[C@H]1C(=O)N[C@H](Cc1ccccc1)C(=O)N[C@H](Cc1ccccc1)C(=O)N1CCC[C@H]1C(=O)N[C@H](Cc1ccccc1)C(=O)N[C@@H](CCCNC(=N)N)C(=O)N[C@@H](CCCNC(=N)N)C(N)=O)[C@@H](C)CC` [BP527] (Hexanoyl-ILP[dF]K[dF]P[dF][dF]P[dF]RR-NH2), the Hemolysis ([4]; 150 µM) was 62.2 ± 4.4%, the Hemolysis ([4]; 250 µM) was 73.6 ± 1.1% and the Hemolysis ([4]; 375 µM) was 100.0 ± 2.6%. The “Biofilm formation Level” value ([1]; 50 µM) was “High (key: High: high antibiofilm activity (ratio of biofilm formation from 0.01 to 0.2); Moderate: moderate activity (ratio from 0.29 to 0.47); Low: low activity (ratio from 0.72 to 0.77))”, the “Biofilm formation Ratio (treatment/NTC)” value ([1]; 50 µM) was 0.18 ± 0.02 and the “Planktonic cells Ratio (treatment/NTC)” value ([1]; 50 µM) was 0.58 ± 0.12. For the same compound, the attached biofilm cells [5] was 12.5%, the biofilm detached cells [5] was 45.7% and the planktonic cells [5] was 41.7%. The “Bactericidal activity: Reduction in viability (Log N0/N)” value ([2]; 50 µM) was 0.49 ± 0.04 Log N0/N.

In the case of `CC(=O)N[C@@H](CS)C(=O)O` [N-Acetyl-L-cysteine, N-acetyl-L-cysteine], the Hemolysis ([4]; 150 µM) is reported as 0.5 ± 0.9%, the Hemolysis ([4]; 250 µM) is reported as 0.7 ± 1.1% and the Hemolysis ([4]; 375 µM) is reported as 1 ± 2%. For the same compound, the “Biofilm formation Level” value ([1]; 50 µM) was “Low (low activity (ratio from 0.72 to 0.77))”, the “Planktonic cells Ratio (treatment/NTC)” value ([1]; 50 µM, OD600 treated / non-treated, PD3, 96-well, 28°C, 5 days, 120 rpm, three replicates of 10 wells ± confidence interval (α=0.05)) was 1.71 ± 0.03 and the “Biofilm formation Ratio (treatment/NTC)” value ([1]; 50 µM, crystal violet OD595 treated / non-treated, PD3, 96-well, 28°C, 5 days, 120 rpm, three replicates of 10 wells ± confidence interval (α=0.05)) was 0.72 ± 0.01. For the same compound, the “Biofilm formation (Ratio T/NTC)” value ([1]; 50 μM, strain IVIA 5387.2, OD595 crystal violet, 28°C, 5 days, three replicates of 10 wells ± confidence interval, listed as NAC) was 0.72 and 0.72 ± 0.01 b, the “Biofilm formation (Ratio T/NTC)” value [6] was 0.97 and the “Biofilm formation (Ratio T/NTC)” value [7] was 0.99. The “Biofilm formation (Ratio T/NTC)” value [8] was 0.42 and 0.42 ± 0.05 a, the “Biofilm formation (Ratio T/NTC)” value [9] was 0.94 ± 0.02 c and the “Bactericidal activity: Level” value ([2]; 50 µM, class by Duncan's test groups) was “Very low (very low activity with less than 0.3 log)”. The “Bactericidal activity: Reduction in viability (Log N0/N)” value ([2]; 50 µM, contact test 3 h at room temperature in SCP buffer, v-qPCR with PMAxx, N0 = 10^7 CFU/mL non-treated control, mean of three replicates ± confidence interval (α=0.05)) was 0.12 ± 0.01 Log N0/N and the “Biofilm formation (Ratio T/NTC)” value [10] was 1.00 ± 0.04 days.

In the case of `CC[C@H](C)[C@H](NC(=O)[C@H](CCCNC(=N)N)NC(=O)[C@H](Cc1c[nH]c2ccccc12)NC(=O)[C@H](CCC(N)=O)NC(=O)[C@@H](N)C(C)C)C(=O)N[C@@H](CCCNC(=N)N)C(=O)N[C@H](C(=O)N[C@@H](CCCNC(=N)N)C(=O)N[C@H](C(=O)N[C@H](C(=O)N[C@@H](CCCCN)C(=O)N[C@@H](CCCCN)C(N)=O)[C@@H](C)CC)C(C)C)C(C)C` [Peptide 1026] (H-VQWRIRVRVIKK-NH2), the “Biofilm formation Level” value [1] is reported as “High (key: High: high antibiofilm activity (ratio of biofilm formation from 0.01 to 0.2); Moderate: moderate activity (ratio from 0.29 to 0.47); Low: low activity (ratio from 0.72 to 0.77))”, the “Planktonic cells Ratio (treatment/NTC)” value [1] is reported as 2.10 ± 0.05 and the attached biofilm cells [5] is reported as 0.7%. The biofilm detached cells [5] was 19.8%, the planktonic cells [5] was 79.5% and the “Bactericidal activity: Reduction in viability (Log N0/N)” value [2] was 1.03 ± 0.07 Log N0/N.

With `CC[C@H](C)[C@H](NC(=O)[C@H](CCCNC(=N)N)NC(=O)[C@H](Cc1ccccc1)NC(=O)[C@H](CCCNC(=N)N)NC(=O)[C@@H](N)CCCCN)C(=O)N[C@@H](CCCNC(=N)N)C(=O)N[C@H](C(=O)N[C@@H](CCCNC(=N)N)C(=O)N[C@H](C(N)=O)C(C)C)C(C)C` [Peptide 1037] (H-KRFRIRVRV-NH2) the “Biofilm formation Level” value [1] was “High (key: High: high antibiofilm activity (ratio of biofilm formation from 0.01 to 0.2); Moderate: moderate activity (ratio from 0.29 to 0.47); Low: low activity (ratio from 0.72 to 0.77))”, the “Biofilm formation Ratio (treatment/NTC)” value [1] was 0.15 ± 0.00 and the “Planktonic cells Ratio (treatment/NTC)” value [1] was 1.67 ± 0.05. For the same compound, the “Bactericidal activity: Reduction in viability (Log N0/N)” value [2] was 0.84 ± 0.09 Log N0/N and the “ED50 (median effective dose, biofilm inhibition)” value [3] was 4.2 ± 2.4 µM.

For `CC[C@H](C)[C@H](NC(=O)[C@H](CCCCN)NC(=O)[C@H](CCCCN)NC(=O)[C@H](CC(C)C)NC(=O)[C@@H](NC(=O)[C@H](CCCNC(=N)N)NC(=O)[C@@H](NC(=O)[C@H](CCCNC(=N)N)NC(=O)[C@@H](NC(=O)[C@H](CCCNC(=N)N)NC(=O)[C@H](Cc1ccccc1)NC(=O)[C@H](CC(C)C)NC(=O)[C@H](CCCNC(=N)N)NC(=O)[C@H](CCCNC(=N)N)NC(=O)[C@H](Cc1ccccc1)NC(=O)[C@@H](N)CCCNC(=N)N)[C@@H](C)CC)C(C)C)C(C)C)C(N)=O` [R-FV7-I16] (H-RFRRLFRIRVRVLKKI-NH2; N-terminus assumed), the Hemolysis ([4]; 150 µM) was 6.3 ± 0.3%, the Hemolysis ([4]; 250 µM) was 8.0 ± 1.3% and the Hemolysis ([4]; 375 µM) was 9.7 ± 0.6%. For the same compound, the “Biofilm formation Level” value ([1]; 50 µM) was “High (key: High: high antibiofilm activity (ratio of biofilm formation from 0.01 to 0.2); Moderate: moderate activity (ratio from 0.29 to 0.47); Low: low activity (ratio from 0.72 to 0.77))”, the “Biofilm formation Ratio (treatment/NTC)” value ([1]; 50 µM) was 0.10 ± 0.01 and the “Planktonic cells Ratio (treatment/NTC)” value ([1]; 50 µM) was 1.70 ± 0.12. For the same compound, the “Described activity: Antibacterial” value [11] was “Ec, Pa, Se”, the “Bactericidal activity: Reduction in viability (Log N0/N)” value ([2]; 50 µM) was 0.39 ± 0.01 Log N0/N and the “Described activity: Antibiofilm” value [12] was “Ec, Pa”. For the same compound, the “ED50 (median effective dose, biofilm inhibition)” value [3] was 6.3 ± 3.7 µM and the “Bimax (maximum biofilm inhibition)” value [3] was 90.6%.

In the case of BP178, the reduction in viability [13] is listed as “approximately 3.6 log”.
